The values that follow come from patent publication US9949956B2, “Compounds, compositions, and methods for preventing metastasis of cancer cells” (Aerpio Therapeutics, Inc., priority 2009, dated 2018).

Values joined by “and” are separate entries in the source; they are usually repeats but may differ in a detail not shown here. Equal values may be shown once.

The subject of test [1] is MiaPaCa-2-RFP tumor fragments. Kind of test: In vivo pancreatic cancer study, surgical orthotopic implantation of MiaPaCa-2-RFP tumor fragments. The arrangement: species or system NCr nu/nu males. To be noted: FIG. 9. An excerpt:
The effectiveness of the disclosed compounds as a treatment for pancreatic cancer was investigated. 60 NCr nu/nu males, 5-6 weeks old were transplanted by surgical orthotopic implantation (SOI) using MiaPaCa-2-RFP tumor fragments harvested from stock animals. The animals were anesthetized with isoflurane and the surgical area was sterilized using iodine and alcohol. An incision approximately 1.5 cm long was made in the left upper abdomen of the nude mouse using a pair of surgical scissors. […] The abdomen was closed with 6-0 surgical sutures (silk). All procedures of the operation described above were performed with a 7× magnification microscope (Olympus) under HEPA filtered laminar flow hoods. Dosing of the animals began three days following tumor implantation. The high dose of gemcitabine was 150 mg/kg. The low dose of gemcitabine was 100 mg/kg. […] was given at 20 mg/kg. […] The animals were divided into the following groups often animals each as depicted in Table XXII.

The next test concerns Renca renal cancer cells. Kind of test: In vivo anticancer study, renal cell carcinoma (Renca). Set-up: species or system Balb/c mice. To be noted: FIG. 1 and FIG. 2. As to the method: The effectiveness of the disclosed compounds as a treatment against renal cell carcinoma was studied. Balb/c mice (6-8 weeks-old, female, Taconic Farm) were inoculated with Renca renal cancer cells (5×10^5 cells/site). […] Tumor volumes were recorded.

For a further test, the system named is B16 melanoma cells. Kind of test: In vivo anticancer study, B16 melanoma. The arrangement: species or system C57BL/6 mice. As to the method:
The effectiveness of the disclosed compounds as a treatment for melanoma was studied. C57BL/6 mice (6-8 weeks-old, female, Taconic Farm) were inoculated with B16 melanoma cells (5×10^4 cells/site, s.c.). […] Tumor volumes were recorded. […] Tumor volumes were recorded.

The test system of test [2] is H460-GFP human tumor cells. Put plainly: In vivo anti-metastasis study, surgical orthotopic implantation of H460-GFP tumor fragments on the lung. The arrangement: species or system NCr nu/nu male mice. As to conditions: for Evidence of Metastasis (individual mouse): mice No. 1-10; for # mice with metastases: ten mice per group. On the procedure: A total of 50 NCr nu/nu male mice aged 5-6 weeks were selected for the following in vivo test. H460-GFP human tumor cells were grown subcutaneously in NCr nu/nu male mice after which the resulting tumors were harvested. Subsequent to harvesting, recipient NCr nu/nu mice of this study had tumor fragments transplanted by surgical orthotopic implantation (SOI). Each animal was anesthetized is isofurane and the surgical area was sterilized with iodine and alcohol. A transverse incision approximately 1.5 cm long was made in the left chest wall of the mice using a pair of surgical scissors. An intercostal incision was made between the third and the fourth costa and the left lung was exposed. Two pieces of H460-GFP tumor fragments were transplanted to the surface of the lung with 8-0 surgical nylon suture. […]. The lung was re-inflated by the intrathoracic puncture using 3 cc syringe with 25 G 11⁄2 needle to draw out the remaining air in the chest cavity. The chest wall was closed with 6-0 surgical silk sutures. All procedures of the operation described above were performed with a 7× magnification microscope (Olympus) under HEPA filtered laminar flow hoods. The treated mice were divided into five groups containing ten mice each. Group I (Control) received 100 μL the drug vehicle twice daily for 15 days. Group II received 15 mg/kg of taxol intravenously at days 6, 9, 12, and 15. […] Group IV received 10 mg/kg of taxol intravenously at days 6, 9, 12, and 15 and 15 mg/kg of the Test Compound twice per day from day 3 to day 15. Group V received 15 mg/kg of the Test Compound twice per day from day 3 to day 15. All animals were sacrificed on day 28. Each animal was checked twice a week for primary tumor and metastasis via GFP open imaging of the mediastinal lymph nodes. No metastasis was found on any other organs. Six mice from the control group died before the end of the study, but were evaluated for tumor and/or cellular metastasis.

For `COC(=O)N[C@@H](Cc1ccccc1)C(=O)N[C@@H](Cc1ccc(NS(=O)(=O)O)cc1)c1csc(-c2cccs2)n1` [D91, 4-{(S)-2-[(S)-2-(Methoxycarbonylamino)-3-phenylpropanamido]-2-[2-(thiophen-2-yl)thiazol-4-yl]ethyl}phenylsulfamic acid], in test [1] (D91 20 mg/kg s.c. twice daily alone, day 28), the pancreatic tumor volume entry is “significant reduction in pancreatic tumor volume”. For the same molecule, the tumor volume result in test [1] (combination of low dose gemcitabine (100 mg/kg i.p.) and 20 mg/kg D91, compared with either alone) is “greater reduction in tumor volume”; with Renca renal cancer cells (combination of D91 (40 mg/kg, bid, s.c.) and IL-2 (100,000 IU/mouse, bid, i.p.)) it was “further reduced tumor volume”; in the test with B16 melanoma cells (high dose of IL-2 (300,000 IU/mouse, bid, i.p.) in combination with high dose of D91 (40 mg/kg, bid, s.c.), compared to high dose IL-2 alone, FIG. 3) it was “significantly reduced tumor volume as compared to high dose of IL-2”; with B16 melanoma cells (low dose of IL-2 (100,000 IU/mouse, bid, i.p.) in combination with high dose of D91 (40 mg/kg, bid, s.c.) versus control, FIG. 6) it was “significantly reduced tumor volume versus control”. The “reducing tumor volume, compared with IL-2” value in the test on Renca renal cancer cells (D91 40 mg/kg bid s.c. versus IL-2 100,000 IU/mouse bid i.p.) is given as “as effective as IL-2 in reducing tumor volume”. For the same molecule, the renal tumor growth result in the test on Renca renal cancer cells (D91 40 mg/kg, bid, s.c. alone) is “significantly reduced renal tumor growth”. Also, the “B16 melanoma tumor volume” value with B16 melanoma cells (40 mg/kg b.i.d. D91 alone versus vehicle control, FIG. 8) is “effectiveness”. Also, the “Evidence of Metastasis (individual mouse)” value in test [2] (Group V: D91 15 mg/kg twice per day, day 3 to 15, 15 mg/kg) was “Yes (2×) and No (8×)”. For the same molecule, the “# mice with metastases” value in test [2] (Group V: D91 15 mg/kg twice per day, day 3 to 15) stood at 2.

Turning to `CC(=O)O[C@H]1C(=O)[C@@]2(C)[C@H]([C@H](OC(=O)c3ccccc3)[C@]3(O)C[C@H](OC(=O)[C@H](O)[C@@H](NC(=O)c4ccccc4)c4ccccc4)C(C)=C1C3(C)C)[C@]1(OC(C)=O)CO[C@@H]1C[C@@H]2O` [taxol, reference compound], in test [2] (Group II: taxol 15 mg/kg i.v. at days 6, 9, 12, 15, GFP open imaging of mediastinal lymph nodes), the “Evidence of Metastasis (individual mouse)” value is “No (9×) and Yes”. Moreover, in test [2] (Group II: taxol 15 mg/kg i.v. at days 6, 9, 12, 15), the “# mice with metastases” value came to 1.
